Assay results as given in patent US20240360116A1, “BICYCLIC DERIVATIVES” (ELANCO TIERGESUNDHEIT AG, priority 2020, published 2024).
Several values for one entry are separate records, joined by “and”; a condition that tells them apart may be missing. Equal entries are not always repeated.

Key:
[1] = biological target: D. immitis Slo-1 (Dirofilaria immitis, UniProt I0DFK5); experiment: In Vitro Assay 2: D. immitis Slo-1 recombinant CHO cell line, membrane potential; type: cell-based; settings: EC50, CHO cells expressing D. immitis Slo-1, voltage sensitive dye, FLIPR Tetra, 70 mM KCl
[2] = tested on: Dirofilaria immitis microfilariae; experiment: In Vitro Assay 3: Dirofilaria immitis microfilariae (DIROIM L1); settings: 72 h, read-out: EC50 (reduction of motility)
[3] = tested on: Adult Nippostrongylus brasiliensis; experiment: In Vitro Assay 5: Nippostrongylus brasiliensis (NIPOBR), acetylcholine esterase readout; settings: adult worms, tested at 10, 1 and 0.1 ppm, vs negative control
Description: Adult Nippostrongylus brasiliensis were washed with saline buffer containing 100 U/ml penicillin, 0.1 mg/ml streptomycin and 2.5 μg/ml amphotericin B. Test compounds were dissolved in DMSO and worms were incubated in medium in a final concentration of 10 μg/ml (10 ppm), 1 μg/ml (1 ppm) and 0.1 μg/ml (0.1 ppm) respectively. An aliquot of the medium was used to determine the acetylcholine esterase activity in comparison to a negative control. The principle of measuring acetylcholine esterase as readout for anthelmintic activity was described in Rapson et al (1986) and Rapson et al (1987).
Based on the evaluation of a wide concentration range, concentration-response curves as well as EC50-values were calculated.

[4] = tested on: Dirofilaria immitis third-stage larvae; experiment: In Vitro Assay 4: Dirofilaria immitis (DIROIM L4); settings: 72 h, read-out: EC50 (reduction of motility)

D. immitis Slo-1, sequence (I0DFK5 1-1119): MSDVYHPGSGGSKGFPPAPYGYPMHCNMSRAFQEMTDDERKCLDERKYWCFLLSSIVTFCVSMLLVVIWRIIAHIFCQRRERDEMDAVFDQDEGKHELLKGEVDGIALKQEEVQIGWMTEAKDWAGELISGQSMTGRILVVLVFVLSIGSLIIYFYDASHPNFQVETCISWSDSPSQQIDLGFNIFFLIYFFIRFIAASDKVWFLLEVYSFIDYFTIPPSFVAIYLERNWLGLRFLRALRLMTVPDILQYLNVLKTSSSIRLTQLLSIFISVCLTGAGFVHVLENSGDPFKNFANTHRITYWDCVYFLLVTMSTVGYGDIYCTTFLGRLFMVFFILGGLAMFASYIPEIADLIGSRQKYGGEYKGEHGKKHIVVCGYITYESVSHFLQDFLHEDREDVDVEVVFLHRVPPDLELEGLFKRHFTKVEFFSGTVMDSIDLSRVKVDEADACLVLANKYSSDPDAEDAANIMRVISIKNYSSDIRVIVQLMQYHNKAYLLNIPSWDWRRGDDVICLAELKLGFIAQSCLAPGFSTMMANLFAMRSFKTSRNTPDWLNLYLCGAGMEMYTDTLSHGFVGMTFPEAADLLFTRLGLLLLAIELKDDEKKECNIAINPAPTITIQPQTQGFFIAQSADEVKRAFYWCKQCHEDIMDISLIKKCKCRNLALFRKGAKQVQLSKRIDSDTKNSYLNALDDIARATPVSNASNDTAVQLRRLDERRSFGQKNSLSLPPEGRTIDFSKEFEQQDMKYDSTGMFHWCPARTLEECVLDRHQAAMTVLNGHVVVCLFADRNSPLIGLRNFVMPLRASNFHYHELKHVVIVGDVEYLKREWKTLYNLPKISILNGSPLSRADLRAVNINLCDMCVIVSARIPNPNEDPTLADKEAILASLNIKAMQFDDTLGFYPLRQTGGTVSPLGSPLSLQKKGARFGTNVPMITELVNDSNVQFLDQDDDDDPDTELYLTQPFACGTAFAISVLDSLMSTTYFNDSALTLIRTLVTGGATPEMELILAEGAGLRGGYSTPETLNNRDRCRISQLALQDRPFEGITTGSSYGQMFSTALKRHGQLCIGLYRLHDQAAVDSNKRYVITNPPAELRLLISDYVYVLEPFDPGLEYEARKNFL

O=C(NN1CCOc2ccccc21)c1cnc2c(-c3cc(F)cc(F)c3F)c(F)ccc2c1C1CC(F)(F)C1 [Example 5.95, 4-(3,3-difluorocyclobutyl)-N-(2,3-dihydro-4H-benzo[b][1,4]oxazin-4-yl)-7-fluoro-8-(2,3,5-trifluorophenyl)quinoline-3-carboxamide]
EC50 [1]: < 100 nM

O=C(NN1CCOc2ccc(F)cc21)c1cnc2c(-c3cc(F)cc(F)c3F)c(F)ccc2c1N1CCOCC1 [Example 5.83, 7-fluoro-N-(6-fluoro-2,3-dihydro-1,4-benzoxazin-4-yl)-4-morpholino-8-(2,3,5-trifluorophenyl)quinoline-3-carboxamide]
EC50 [2]: < 0.1 µg/mL
EC50 [3]: < 0.1 µg/mL
EC50 [4]: < 0.1 µg/mL
EC50 [1]: < 100 nM

Nc1c(Cl)cc(C(F)(F)F)cc1-c1cccc2c(N3CCOCC3)c(C(=O)NN3CCOc4ccccc43)cnc12 [Example 5.77, 8-[2-amino-3-chloro-5-(trifluoromethyl)phenyl]-N-(2,3-dihydro-1,4-benzoxazin-4-yl)-4-morpholino-quinoline-3-carboxamide]
EC50 [1]: < 100 nM and 100 to 1000 nM

O=C(NN1CCOc2ccccc21)c1cnc2c(-c3cc(C(F)(F)F)cc(F)c3F)c(F)ccc2c1N1CCOCC1 [Example 5.94, 8-(2,3-difluoro-5-(trifluoromethyl)phenyl)-N-(2,3-dihydro-4H-benzo[b][1,4]oxazin-4-yl)-7-fluoro-4-morpholinoquinoline-3-carboxamide]
EC50 [1]: < 100 nM

O=C(NN1CCOc2ccccc21)c1cnc2c(-c3cc(F)cc(F)c3F)c(F)ccc2c1N1CC(F)C1 [Example 5.78, N-(2,3-dihydro-1,4-benzoxazin-4-yl)-7-fluoro-4-(3-fluoroazetidin-1-yl)-8-(2,3,5-trifluorophenyl)quinoline-3-carboxamide]
EC50 [1]: < 100 nM

O=C(NN1CCOc2ccccc21)c1cnc2c(-c3cc(C(F)(F)F)cc(F)c3Br)cccc2c1N1CCOCC1 [Example 5.80, 8-[2-bromo-3-fluoro-5-(trifluoromethyl)phenyl]-N-(2,3-dihydro-1,4-benzoxazin-4-yl)-4-morpholino-quinoline-3-carboxamide]
EC50 [3]: < 0.1 µg/mL
EC50 [1]: < 100 nM

O=C(NN1CCOc2ccccc21)c1cnc2c(-c3cc(F)cc(F)c3F)c(F)ccc2c1C1CC(F)C1 (stereo not shown) [Example 5.101, N-(2,3-dihydro-4H-benzo[b][1,4]oxazin-4-yl)-7-fluoro-4-(3-fluorocyclobutyl)-8-(2,3,5-trifluorophenyl)quinoline-3-carboxamide]
EC50 [1]: < 100 nM

O=C(NN1CCOc2ccc(F)cc21)c1cnc2c(-c3cc(F)cc(F)c3F)c(F)ccc2c1C1CCOC1 (stereo not shown) [Example 5.97, 7-fluoro-N-(6-fluoro-2,3-dihydro-4H-benzo[b][1,4]oxazin-4-yl)-4-(tetrahydrofuran-3-yl)-8-(2,3,5-trifluorophenyl)quinoline-3-carboxamide]
EC50 [1]: < 100 nM

N#Cc1c(F)cc(C(F)(F)F)cc1-c1cccc2c(N3CCOCC3)c(C(=O)NN3CCOc4ccccc43)cnc12 [Example 5.81, 8-[2-cyano-3-fluoro-5-(trifluoromethyl)phenyl]-N-(2,3-dihydro-1,4-benzoxazin-4-yl)-4-morpholino-quinoline-3-carboxamide]
EC50 [1]: 100 to 1000 nM

O=C(NN1CCOc2ccccc21)c1cnc2c(-c3cc(C(F)(F)F)cc(F)c3F)c(F)ccc2c1C1CS(=O)(=O)C1 [Example 5.107, 8-(2,3-difluoro-5-(trifluoromethyl)phenyl)-N-(2,3-dihydro-4H-benzo[b][1,4]oxazin-4-yl)-4-(1,1-dioxidothietan-3-yl)-7-fluoroquinoline-3-carboxamide]
EC50 [3]: < 0.1 µg/mL
EC50 [1]: 100 to 1000 nM

O=C(NN1CCOc2ccc(F)cc21)c1cnc2c(-c3cc(F)cc(F)c3F)c(F)ccc2c1C1CS(=O)(=O)C1 [Example 5.106, 4-(1,1-dioxidothietan-3-yl)-7-fluoro-N-(6-fluoro-2,3-dihydro-4H-benzo[b][1,4]oxazin-4-yl)-8-(2,3,5-trifluorophenyl)quinoline-3-carboxamide]
EC50 [3]: < 0.1 µg/mL
EC50 [1]: 100 to 1000 nM

CN(c1c(C(=O)NN2CCOc3ccccc32)cnc2c(-c3cc(F)cc(F)c3F)c(F)ccc12)C1CC(F)C1 (stereo not shown) [Example 5.87, N-(2,3-dihydro-1,4-benzoxazin-4-yl)-7-fluoro-4-[(3-fluorocyclobutyl)-methyl-amino]-8-(2,3,5-trifluorophenyl)quinoline-3-carboxamide]
EC50 [3]: < 0.1 µg/mL

C=C(C)c1c(C(=O)NN2CCOc3ccc(F)cc32)cnc2c(-c3cc(F)cc(F)c3F)c(F)ccc12 [Example 5.99, 7-fluoro-N-(6-fluoro-2,3-dihydro-4H-benzo[b][1,4]oxazin-4-yl)-4-(prop-1-en-2-yl)-8-(2,3,5-trifluorophenyl)quinoline-3-carboxamide]
EC50 [1]: 100 to 1000 nM

O=C(NN1C(=O)COc2ccccc21)c1cnc2c(-c3cc(F)cc(F)c3F)cccc2c1N1CCOCC1 [Example 5.109, 4-morpholino-N-(3-oxo-2,3-dihydro-4H-benzo[b][1,4]oxazin-4-yl)-8-(2,3,5-trifluorophenyl)quinoline-3-carboxamide]
EC50 [1]: 100 to 1000 nM

O=C(NN1CCOc2ccccc21)c1cnc2c(-c3cc(Cl)cc(F)c3F)c(F)ccc2c1N1CC(F)C1 [Example 5.79, 8-(5-chloro-2,3-difluoro-phenyl)-N-(2,3-dihydro-1,4-benzoxazin-4-yl)-7-fluoro-4-(3-fluoroazetidin-1-yl)quinoline-3-carboxamide]
EC50 [3]: < 0.1 µg/mL
EC50 [1]: 100 to 1000 nM

COC1CN(c2c(C(=O)NN3CCOc4ccccc43)cnc3c(-c4cc(F)cc(F)c4F)c(F)ccc23)C1 [Example 5.84, N-(2,3-dihydro-1,4-benzoxazin-4-yl)-7-fluoro-4-(3-methoxyazetidin-1-yl)-8-(2,3,5-trifluorophenyl)quinoline-3-carboxamide]
EC50 [1]: 100 to 1000 nM

O=C(NN1CCOc2ccccc21)c1cnc2c(-c3cc(F)cc(F)c3F)c(F)ccc2c1C1CSC1 [Example 5.85, N-(2,3-dihydro-1,4-benzoxazin-4-yl)-7-fluoro-4-(thietan-3-yl)-8-(2,3,5-trifluorophenyl)quinoline-3-carboxamide]
EC50 [3]: < 0.1 µg/mL
EC50 [1]: < 100 nM

O=C(NN1CCOc2ccccc21)c1cnc2c(-c3cc(F)cc(S(F)(F)(F)(F)F)c3)c(F)ccc2c1C1CCOC1 (stereo not shown) [Example 5.102, N-(2,3-dihydro-4H-benzo[b][1,4]oxazin-4-yl)-7-fluoro-8-(3-fluoro-5-(pentafluoro-sulfanyl)phenyl)-4-(tetrahydrofuran-3-yl)quinoline-3-carboxamide]
EC50 [1]: < 100 nM

O=C(NN1CCOc2ccccc21)c1cnc2c(-c3cc(F)cc(F)c3F)c(F)ccc2c1N1C[C@@H](F)[C@H](F)C1 [Example 5.92, 4-[(3R,4R)-3,4-difluoropyrrolidin-1-yl]-N-(2,3-dihydro-1,4-benzoxazin-4-yl)-7-fluoro-8-(2,3,5-trifluorophenyl)quinoline-3-carboxamide]
EC50 [3]: < 0.1 µg/mL
EC50 [4]: < 0.1 µg/mL

O=C(NN1CCOc2ccccc21)c1cnc2c(-c3cc(F)cc(F)c3F)c(F)ccc2c1N1C[C@@H](F)[C@@H](F)C1 (single isomer, unassigned) [Example 5.89, 4-(3,4-difluoropyrrolidin-1-yl)-N-(2,3-dihydro-1,4-benzoxazin-4-yl)-7-fluoro-8-(2,3,5-trifluorophenyl)quinoline-3-carboxamide]
EC50 [3]: < 0.1 µg/mL
EC50 [4]: < 0.1 µg/mL
EC50 [1]: < 100 nM

O=C(NN1CCOc2ccccc21)c1cnc2c(-c3cc(C(F)(F)F)cc(F)c3F)c(F)ccc2c1N1CC(F)C1 [Example 5.96, 8-(2,3-difluoro-5-(trifluoromethyl)phenyl)-N-(2,3-dihydro-4H-benzo[b][1,4]oxazin-4-yl)-7-fluoro-4-(3-fluoroazetidin-1-yl)quinoline-3-carboxamide]
EC50 [1]: 100 to 1000 nM

O=C(NN1CCOc2ccc(F)cc21)c1cnc2c(-c3cc(F)cc(F)c3F)c(F)ccc2c1N1CC(F)C1 [Example 5.98, 7-fluoro-N-(6-fluoro-2,3-dihydro-4H-benzo[b][1,4]oxazin-4-yl)-4-(3-fluoroazetidin-1-yl)-8-(2,3,5-trifluorophenyl)quinoline-3-carboxamide]
EC50 [1]: 100 to 1000 nM

O=C(NN1CCOc2ccccc21)c1cnc2c(-c3cc(F)cc(F)c3F)c(F)c(F)cc2c1N1CCOCC1 [Example 5.105, N-(2,3-dihydro-4H-benzo[b][1,4]oxazin-4-yl)-6,7-difluoro-4-morpholino-8-(2,3,5-trifluorophenyl)quinoline-3-carboxamide]
EC50 [1]: < 100 nM

O=C1CC(c2c(C(=O)NN3CCOc4ccccc43)cnc3c(-c4cc(F)cc(F)c4F)c(F)ccc23)C1 [Example 5.82, N-(2,3-dihydro-1,4-benzoxazin-4-yl)-7-fluoro-4-(3-oxocyclobutyl)-8-(2,3,5-trifluorophenyl)quinoline-3-carboxamide]
EC50 [2]: < 0.1 µg/mL
EC50 [3]: < 0.1 µg/mL
EC50 [4]: < 0.1 µg/mL
EC50 [1]: < 100 nM

O=C(NN1CCOc2ccccc21)c1cnc2c(-c3cc(F)cc(F)c3F)c(F)ccc2c1C1CS(=O)(=O)C1 [Example 5.86, N-(2,3-dihydro-1,4-benzoxazin-4-yl)-4-(1,1-dioxothietan-3-yl)-7-fluoro-8-(2,3,5-trifluorophenyl)quinoline-3-carboxamide]
EC50 [1]: 100 to 1000 nM

N#Cc1c(Cl)cc(C(F)(F)F)cc1-c1cccc2c(N3CCOCC3)c(C(=O)NN3CCOc4ccccc43)cnc12 [Example 5.76, 8-[3-chloro-2-cyano-5-(trifluoromethyl)phenyl]-N-(2,3-dihydro-1,4-benzoxazin-4-yl)-4-morpholino-quinoline-3-carboxamide]
EC50 [1]: 100 to 1000 nM
